SMILES strings stand for the structures.

By IC50 is commonly meant the concentration at which inhibition is half-maximal.

The target in the experiment is PI3Kalpha (Homo sapiens (Human), UniProt P42336). As to conditions: read-out: IC50 PI3K.
PI3Kalpha, sequence (P42336 whole entry, looked up): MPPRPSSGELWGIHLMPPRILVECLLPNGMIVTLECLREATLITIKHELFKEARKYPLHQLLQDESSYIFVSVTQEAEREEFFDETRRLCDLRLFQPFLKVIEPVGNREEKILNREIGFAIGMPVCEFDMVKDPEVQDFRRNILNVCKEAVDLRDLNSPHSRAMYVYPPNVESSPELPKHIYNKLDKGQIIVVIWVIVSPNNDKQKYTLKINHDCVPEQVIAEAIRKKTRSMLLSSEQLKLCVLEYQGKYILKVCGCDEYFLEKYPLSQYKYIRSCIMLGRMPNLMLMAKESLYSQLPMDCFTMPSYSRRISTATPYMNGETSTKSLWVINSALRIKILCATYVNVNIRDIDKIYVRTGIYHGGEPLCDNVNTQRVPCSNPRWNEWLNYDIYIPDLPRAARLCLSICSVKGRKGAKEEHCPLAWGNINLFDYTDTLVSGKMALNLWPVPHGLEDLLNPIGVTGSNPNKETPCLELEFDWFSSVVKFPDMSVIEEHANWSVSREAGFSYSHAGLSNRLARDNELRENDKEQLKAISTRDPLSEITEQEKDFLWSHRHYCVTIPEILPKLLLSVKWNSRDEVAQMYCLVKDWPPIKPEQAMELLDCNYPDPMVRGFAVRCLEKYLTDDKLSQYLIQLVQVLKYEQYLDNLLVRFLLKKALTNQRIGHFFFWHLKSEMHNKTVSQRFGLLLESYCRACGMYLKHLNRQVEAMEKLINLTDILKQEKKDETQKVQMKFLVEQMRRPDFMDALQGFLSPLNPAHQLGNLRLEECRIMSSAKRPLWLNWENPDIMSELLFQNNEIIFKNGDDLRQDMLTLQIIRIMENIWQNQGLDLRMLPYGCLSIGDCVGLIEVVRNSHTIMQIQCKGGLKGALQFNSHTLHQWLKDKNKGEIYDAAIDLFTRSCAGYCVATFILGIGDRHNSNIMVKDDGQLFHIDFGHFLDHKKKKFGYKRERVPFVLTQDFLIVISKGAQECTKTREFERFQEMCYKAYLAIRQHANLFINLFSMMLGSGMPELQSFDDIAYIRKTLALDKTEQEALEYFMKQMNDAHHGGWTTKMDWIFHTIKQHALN
Method: Plot the concentration of each compound versus the emission ratio. […] Determination of IC50 values can be obtained by curve fitting (sigmoidal dose response, variable slope) using Prism software from GraphPad).
Method Type: Filter-Binding-Assay
Compounds are serially diluted in assay buffer+6% DMSO and 10 μl of each dilution is added per well of a 96-well plate (compounds are tested in duplicates) and mixed with 30 μl of the lipid vesicles containing PDGFR-Peptide (0.5 μM final) and PI3K alpha (25 ng/well final). The mixture is then incubated for 20 minutes at room temperature. Subsequently, 20 μl of assay buffer containing 3 μM cold ATP and 0.5 μCi/20 μl 33P-ATP are added. The plates are then incubated at room temperature for 120 minutes (shaking with 300 rpm). The reaction mix is transferred onto filter plates using “filtermate harvester” from Packard: filter plates are rinsed with PBS, then the reaction mix is filtered onto the filter plate, washed 5 times with PBS and are allowed to dry for 30-60 minutes at 50° C.
As positive control serve wells containing vehicle controls (1% DMSO in assay buffer), showing non-inhibited kinase activity (high values). Wells containing assay buffer instead of enzyme can serve as control for background activity (low values).
Calculate IC50 values using the Smiley program (based on GrapPad Prism)
For the compound `CCc1ncnc(-c2cc(F)c(C(=O)N3CCN4CCC[C@H]4C3)c(Cl)c2)c1C#Cc1ccc(N)nc1` [Example E-238], the IC50 is 0.175 µM.

Consider `CCc1ncnc(-c2ccc(C(=O)N3CC4(CN(C)C4)C3)c(F)c2)c1C#Cc1ccc(N)nc1` [Example E-287], for which the IC50 stood at 0.288 µM.

For `CCc1ncnc(-c2cc(Cl)c(C(=O)N3CCC4(CC3)CN(C)C4)c(Cl)c2)c1C#Cc1ccc(N)nc1` [Example E-335], the IC50 worked out at 2.21 µM.

Turning to `CCc1ncnc(-c2ccc(C(=O)N3CCC4(CC3)OCCCO4)c(C)c2)c1C#Cc1ccc(N)nc1` [Example E-117], the half-inhibitory concentration (IC50) worked out at 0.0735 µM.

For `Cc1ncnc(-c2ccc(C(=O)N3CCCCO3)c(Cl)c2)c1C#Cc1ccc(N)nc1` [Example D-231], the IC50 was determined as 0.046 µM.

On to `CCc1ncnc(-c2ccc(C(=O)N3CCC(N(C)C)CC3)c(OC)c2)c1C#Cc1ccc(N)nc1` [Example E-59], for which the concentration for half-maximal inhibition (IC50) was 0.294 µM.

Take `CCc1ncnc(-c2cc(F)c(C(=O)N3CCN(C(C)C)CC3)c(F)c2)c1C#Cc1ccc(N)nc1` [Example E-2]: the IC50 came out at 0.237 µM.

As to `CCc1ncnc(-c2cc(Cl)c(C(=O)N3CCC(C)(O)CC3)c(Cl)c2)c1C#Cc1ccc(N)nc1` [Example E-203], the IC50 was 0.0952 µM.

As for `CCc1ncnc(-c2ccc(C(=O)N3CCC4(CC3)CN(C)C4)c(F)c2)c1C#Cc1ccc(N)nc1` [Example E-339], the concentration for half-maximal inhibition (IC50) turned out to be 0.331 µM.

In the case of `CCc1ncnc(-c2ccc(C(=O)N3CCN(CC)CC3)c(OC)c2)c1C#Cc1ccc(N)nc1` [Example D-53], the half-inhibitory concentration (IC50) was found to be 0.213 µM.

As for `CCc1ncnc(-c2ccc(C(=O)NC3CCCN(C)C3)c(Cl)c2)c1C#Cc1ccc(N)nc1` (stereo not shown) [Example E-22], the 50% inhibitory concentration (IC50) was 0.51 µM.

For `CCc1ncnc(-c2ccc(C(=O)N(C)C3CCS(=O)(=O)C3)c(C)c2)c1C#Cc1ccc(N)nc1` (stereo not shown) [Example E-105], the IC50 was 0.0517 µM.

Take `CCc1ncnc(-c2ccc(C(=O)N3CCC(N(CC)CC)C3)c(F)c2)c1C#Cc1ccc(N)nc1` [Example D-238]: the IC50 stood at 0.382 µM.

As for `CCc1ncnc(-c2ccc(C(=O)N3CCC(N4CCN(C)CC4)CC3)c(OC)c2)c1C#Cc1ccc(N)nc1` [Example E-45], the IC50 stood at 0.0969 µM.

Take `CCc1ncnc(-c2ccc(C(=O)NCCN3CCNCC3)c(F)c2)c1C#Cc1ccc(N)nc1` [Example E-167]: the half-inhibitory concentration (IC50) was determined as 0.157 µM.

For `CCc1ncnc(-c2cc(F)c(C(=O)N3CCN(C)CC3)c(F)c2)c1C#Cc1ccc(NC)nc1` [Example E-210], the IC50 was 0.388 µM.

As for `CCc1ncnc(-c2ccc(C(=O)N3CCOCC3)c(Cl)c2)c1C#Cc1ccc(N)nc1` [Example E-72], the IC50 was determined as 0.0665 µM.

Turning to `CCc1ncnc(-c2ccc(C(=O)N3CCC(C4CCN(C)CC4)CC3)c(Cl)c2)c1C#Cc1ccc(N)nc1` [Example E-21], the 50% inhibitory concentration (IC50) amounted to 0.374 µM.

Regarding `CCc1ncnc(-c2ccc(C(=O)N3CCN(C4CC4)CC3)c(F)c2)c1C#Cc1ccc(N)nc1C` [Example D-13], the IC50 was 0.312 µM.

As to `CCc1ncnc(-c2ccc(C(=O)N3CCC(O)(CN(C)C)CC3)c(F)c2)c1C#Cc1ccc(N)nc1` [Example D-103], the half-inhibitory concentration (IC50) amounted to 0.47 µM.

As to `Cc1ncnc(-c2ccc(C(=O)N3CCN4CCCCC4C3)cc2)c1C#Cc1ccc(N)nc1` [Example D-191], the concentration for half-maximal inhibition (IC50) was 0.081 µM.

For the compound `CCc1ncnc(-c2ccc(F)c(C(=O)N3CCOCC3)c2)c1C#Cc1ccc(N)nc1` [Example C-46], the IC50 came to 0.226 µM.

Regarding `CCc1ncnc(-c2ccc(C(=O)N3CCC(N4CCN(C)CC4)CC3)c(F)c2)c1C#Cc1ccc(NC)nc1` [Example E-183], the IC50 was 0.308 µM.

On to `CCc1ncnc(-c2ccc(C(=O)N3CCN(CCCS(C)(=O)=O)CC3)c(F)c2)c1C#Cc1ccc(N)nc1` [Example E-250], for which the concentration for half-maximal inhibition (IC50) came out at 0.0922 µM.

Turning to `CCc1ncnc(-c2ccc(C(=O)N3CCC(CN(C)C)CC3)c(F)c2)c1C#Cc1ccc(N)nc1` [Example E-272], the half-maximal inhibitory concentration (IC50) was determined as 0.475 µM.

On to `CCc1ncnc(-c2ccc(C(=O)N3CCNC(=O)C3)c(Cl)c2)c1C#Cc1ccc(N)nc1` [Example D-44], for which the IC50 came out at 0.027 µM.

Take `C#CCN1CCN(C(=O)c2ccc(-c3ncnc(CC)c3C#Cc3ccc(N)nc3)cc2F)CC1` [Example E-165]: the half-inhibitory concentration (IC50) was 0.178 µM.

As to `CCc1ncnc(-c2ccc(C(=O)N3CCCO3)c(Cl)c2)c1C#Cc1ccc(N)nc1` [Example E-74], the IC50 is 0.0539 µM.

On to `CCc1ncnc(-c2ccc(C(=O)N3CCN(C4CCCC4O)CC3)c(F)c2)c1C#Cc1ccc(N)nc1` (stereo not shown) [Example E-294], for which the IC50 is 0.137 µM.

With `CCc1ncnc(-c2cc(F)c(C(=O)N3CCC4(CC3)CN(C)C4)c(Cl)c2)c1C#Cc1ccc(N)nc1` [Example E-337], the IC50 worked out at 0.862 µM.

For `CCc1ncnc(-c2cc(F)c(C(=O)N3CCN(C)C(=O)C3)c(F)c2)c1C#Cc1ccc(NC)nc1` [Example E-208], the IC50 came to 0.176 µM.

With `CCc1ncnc(-c2ccc(C(=O)N3CCC(OC)CC3)c(Cl)c2)c1C#Cc1ccc(N)nc1` [Example E-24], the half-maximal inhibitory concentration (IC50) was found to be 0.0935 µM.

For `CCc1ncnc(-c2cc(F)c(C(=O)N3CCN(CC(C)(C)O)CC3)c(F)c2)c1C#Cc1ccc(NC)nc1` [Example E-212], the half-inhibitory concentration (IC50) came to 0.645 µM.

With `CCc1ncnc(-c2ccc(C(=O)N3CCCC(N(C)C)C3)c(OC)c2)c1C#Cc1ccc(N)nc1` (stereo not shown) [Example E-51], the half-inhibitory concentration (IC50) was determined as 0.205 µM.

With `CCc1ncnc(-c2ccc(C(=O)N3CCC(N4CCCC4)CC3)c(F)c2)c1C#Cc1ccc(N)nc1` [Example D-112], the 50% inhibitory concentration (IC50) came to 0.323 µM.

Turning to `CCc1ncnc(-c2cc(F)c(C(=O)N3CCN(CC(C)O)CC3)c(Cl)c2)c1C#Cc1ccc(N)nc1` (stereo not shown) [Example E-309], the IC50 stood at 0.239 µM.

With `CCc1ncnc(-c2cc(F)c(C(=O)N3CCN(CC)CC3)c(F)c2)c1C#Cc1ccc(NC)nc1` [Example E-211], the half-inhibitory concentration (IC50) is 0.472 µM.

Regarding `CCc1ncnc(-c2ccc(C(=O)N3CCC[C@H]3CO)c(F)c2)c1C#Cc1ccc(N)nc1` [Example E-17], the IC50 turned out to be 0.136 µM.

On to `CCc1ncnc(-c2ccc(C(=O)N3CCN(CCCS(C)(=O)=O)CC3)c(Cl)c2)c1C#Cc1ccc(N)nc1` [Example E-257], for which the concentration for half-maximal inhibition (IC50) worked out at 0.0583 µM.

Regarding `CCc1ncnc(-c2ccc(C(=O)N3CCN(CC4CCCN(C)C4)CC3)c(F)c2)c1C#Cc1ccc(N)nc1` [Example D-114], the IC50 worked out at 0.188 µM.

As for `CCc1ncnc(-c2ccc(C(=O)N3CCN(CC4CCCO4)CC3)c(F)c2)c1C#Cc1ccc(N)nc1C` [Example D-16], the IC50 was 0.192 µM.

Turning to `CCc1ncnc(-c2ccc(C(=O)N3CCN(Cc4ncon4)CC3)c(F)c2)c1C#Cc1ccc(N)nc1` [Example E-346], the IC50 came to 0.167 µM.

For the compound `CCc1ncnc(-c2ccc(C(=O)N(C)CCCO)c(F)c2)c1C#Cc1ccc(N)nc1` [Example D-4], the IC50 worked out at 0.058 µM.

Regarding `CCc1ncnc(-c2ccc(C(=O)NCCN3CCOCC3)c(OC)c2)c1C#Cc1ccc(N)nc1` [Example E-64], the IC50 stood at 0.118 µM.

For `CCc1ncnc(-c2cc(F)c(C(=O)N3CCN(C4CCOCC4)CC3)c(F)c2)c1C#Cc1ccc(NC)nc1` [Example E-216], the 50% inhibitory concentration (IC50) came out at 0.466 µM.

For `CCc1ncnc(-c2ccc(C(=O)N3CCN(C)CC3)c(F)c2)c1C#Cc1ccc(NC)nc1` [Example E-182], the IC50 amounted to 0.247 µM.

As for `CCc1ncnc(-c2ccc(C(=O)N(C)CCCOC)c(Cl)c2)c1C#Cc1ccc(N)nc1` [Example D-30], the IC50 came to 0.068 µM.

Regarding `CCc1ncnc(-c2ccc(C(=O)N3CCC4(CC3)COC4)c(F)c2)c1C#Cc1ccc(N)nc1` [Example E-164], the IC50 turned out to be 0.154 µM.

In the case of `CCc1ncnc(-c2ccc(C(=O)N(C)O)c(F)c2)c1C#Cc1ccc(N)nc1` [Example D-68], the IC50 stood at 0.042 µM.

As for `CNC(=O)c1cc(-c2ncnc(C)c2C#Cc2ccc(N)nc2)ccc1F` [Example C-43], the IC50 turned out to be 0.184 µM.

For `CCc1ncnc(-c2cc(F)c(C(=O)N3CCC(C(C)(C)O)CC3)c(F)c2)c1C#Cc1ccc(NC)nc1` [Example E-214], the 50% inhibitory concentration (IC50) amounted to 0.6 µM.

In the case of `CCc1ncnc(-c2ccc(C(=O)N3CCC(N(C)C)CC3)c(F)c2)c1C#Cc1ccc(N)nc1` [Example D-100], the IC50 stood at 0.347 µM.

Consider `CCc1ncnc(-c2cc(F)c(C(=O)N3CCC(C)(O)CC3)c(F)c2)c1C#Cc1ccc(NC)nc1` [Example E-218], for which the 50% inhibitory concentration (IC50) stood at 0.362 µM.

On to `CCc1ncnc(-c2cc(F)c(C(=O)N3CCn4ccnc4C3)c(F)c2)c1C#Cc1ccc(N)nc1` [Example E-147], for which the IC50 was 0.0557 µM.

Regarding `Cc1ncnc(-c2ccc(C(=O)N(C)C)c(F)c2)c1C#Cc1ccc(N)nc1` [Example C-11], the IC50 is 0.047 µM.

`CCc1ncnc(-c2ccc(C(=O)N3CCN(Cc4cc(C)no4)CC3)c(Cl)c2)c1C#Cc1ccc(N)nc1` [Example E-312]: the IC50 is 0.11 µM.

Turning to `Cc1ncnc(-c2cc(Cl)cc(C(=O)N(C)C)c2)c1C#Cc1ccc(N)nc1` [Example C-38], the IC50 was 0.068 µM.

For the compound `CCc1ncnc(-c2ccc(C(=O)N3CCN(C4CCOCC4)CC3)c(C)c2)c1C#Cc1ccc(N)nc1` [Example E-88], the IC50 was determined as 0.0844 µM.

For `CCc1ncnc(-c2ccc(C(=O)N3CCn4cnnc4C3)c(Cl)c2)c1C#Cc1ccc(N)nc1` [Example E-255], the 50% inhibitory concentration (IC50) is 0.00483 µM.

With `CCc1ncnc(-c2cc(Cl)c(C(=O)N3CC4(CN(C)C4)C3)c(Cl)c2)c1C#Cc1ccc(N)nc1` [Example E-333], the IC50 amounted to 0.599 µM.

For `CCc1ncnc(-c2ccc(C(=O)N3CCN(Cc4ccccc4)CC3)c(C)c2)c1C#Cc1ccc(N)nc1` [Example E-115], the IC50 is 0.154 µM.

`CCc1ncnc(-c2ccc(C(=O)N3CCC(C(C)(C)O)CC3)c(C)c2)c1C#Cc1ccc(N)nc1` [Example E-87]: the IC50 was found to be 0.0788 µM.

Consider `CCc1ncnc(-c2ccc(C(=O)NC3CCN(C)CC3)c(F)c2)c1C#Cc1ccc(N)nc1` [Example D-65], for which the 50% inhibitory concentration (IC50) was 0.436 µM.

Regarding `CCc1ncnc(-c2cc(F)c(C(=O)N3CCN(C(C)COC)CC3)c(Cl)c2)c1C#Cc1ccc(N)nc1` (stereo not shown) [Example E-305], the half-maximal inhibitory concentration (IC50) stood at 0.11 µM.

Take `CCNc1ccc(C#Cc2c(CC)ncnc2-c2ccc(C(=O)N3CCC4(CC3)COC4)c(F)c2)cn1` [Example E-263]: the IC50 was found to be 0.204 µM.

As for `CCOC(=O)N1CCN(C(=O)c2ccc(-c3ncnc(CC)c3C#Cc3ccc(N)nc3)cc2Cl)CC1` [Example E-82], the half-maximal inhibitory concentration (IC50) was 0.0817 µM.

With `CCc1ncnc(-c2ccc(C(=O)N(C)CC(C)(C)O)c(F)c2)c1C#Cc1ccc(N)nc1` [Example D-81], the 50% inhibitory concentration (IC50) is 0.084 µM.

The values above are taken from patent US8633183B2 (priority 2010, dated 2014).
